Data taken from ChEMBL document CHEMBL1201862, “PubChem BioAssay data set” (2004).
Where “and” joins values, the source holds several entries; their conditions need not be identical. Equal values may be shown once.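 Interpolation was linear, between the two tested concentrations surrounding the appropriate level; five concentrations were tested over 48 hours in 96-well plates. GI50: concentration for 50% inhibition of growth.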 Calls of active or inactive are those of the source. Cut-off read from the data, not from the text of the source: active = GI50 up to about 1.1 µM and inactive = higher.

Assays:
Assay in all cases: NCI anticancer screen, dose series, 48 h
RPMI-8226 = system: RPMI-8226
SK-OV-3 = system: SK-OV-3
PC-3 = system: PC-3
SK-MEL-2 = system: SK-MEL-2
DMS-114 = system: DMS-114
CAKI-1 = system: CAKI-1
SR = system: SR
UACC-257 = system: UACC-257
KM-20L2 = system: KM-20L2
SN12C = system: SN12C
RXF 631 = system: RXF 631
OVCAR-4 = system: OVCAR-4
CCRF-CEM = system: CCRF-CEM
HCC 2998 = system: HCC 2998
A549 = system: A549
SNB-78 = system: SNB-78
MCF7 = system: MCF7
HOP-18 = system: HOP-18
KM12 = system: KM12
SK-MEL-5 = system: SK-MEL-5
HT-29 = system: HT-29
DMS-273 = system: DMS-273
M19-MEL = system: M19-MEL
HCT-116 = system: HCT-116
BT-549 = system: BT-549
OVCAR-3 = system: OVCAR-3
NCI-H226 = system: NCI-H226
TK-10 = system: TK-10
T47D = system: T47D
OVCAR-8 = system: OVCAR-8
786-0 = system: 786-0
EKVX = system: EKVX
NCI-H23 = system: NCI-H23
HL-60 = system: HL-60
LOX IMVI = system: LOX IMVI
SNB-19 = system: SNB-19
ACHN = system: ACHN
OVCAR-5 = system: OVCAR-5
SW-620 = system: SW-620
U-251 = system: U-251
MOLT-4 = system: MOLT-4
COLO 205 = system: COLO 205
RXF 393 = system: RXF 393
UACC-62 = system: UACC-62
SF-268 = system: SF-268
SK-MEL-28 = system: SK-MEL-28
NCI-H522 = system: NCI-H522
HCT-15 = system: HCT-15
A498 = system: A498
XF498 = system: XF498
HOP-62 = system: HOP-62
IGROV-1 = system: IGROV-1
K562 = system: K562
NCI-H460 = system: NCI-H460
M14 = system: M14
UO-31 = system: UO-31
LXFL 529 = system: LXFL 529
SF-539 = system: SF-539
SNB-75 = system: SNB-75
Malme-3M = system: Malme-3M
DLD-1 = system: DLD-1
SF-295 = system: SF-295

COc1cccc2c1C(=O)c1c(O)c3c(c(O)c1C2=O)C[C@@](O)(C(=O)CO)C[C@@H]3OC1CC(N)C(O)C(C)O1 (some centres not stated)
GI50 (RPMI-8226): 55.3 nM (active) and 43.9 nM (active) | GI50 (SK-OV-3): 0.414 µM (active) | GI50 (PC-3): 237 nM (active) and 255 nM (active) | GI50 (SK-MEL-2): 252 nM (active) and 203 nM (active) | GI50 (DMS-114): 0.0975 µM (active) | GI50 (CAKI-1): 269 nM (active) and 176 nM (active) | GI50 (SR): 10 nM (active) and 12.2 nM (active) | GI50 (UACC-257): 215 nM (active) and 337 nM (active) | GI50 (KM-20L2): 0.879 µM (active) | GI50 (SN12C): 89.5 nM (active) and 170 nM (active) | GI50 (RXF 631): 0.912 µM (active) | GI50 (OVCAR-4): 1.16 µM (inactive) and 671 nM (active) | GI50 (CCRF-CEM): 34.8 nM (active) and 44.9 nM (active) | GI50 (HCC 2998): 314 nM (active) and 191 nM (active) | GI50 (A549): 74.1 nM (active) and 80.2 nM (active) | GI50 (SNB-78): 0.457 µM (active) | GI50 (MCF7): 0.0169 µM (active) | GI50 (HOP-18): 0.478 µM (active) | GI50 (KM12): 254 nM (active) and 366 nM (active) | GI50 (SK-MEL-5): 114 nM (active) and 72.8 nM (active) | GI50 (HT-29): 312 nM (active) and 187 nM (active) | GI50 (DMS-273): 0.0883 µM (active) | GI50 (M19-MEL): 0.2 µM (active) | GI50 (HCT-116): 66.5 nM (active) and 72.6 nM (active) | GI50 (BT-549): 438 nM (active) and 255 nM (active) | GI50 (OVCAR-3): 394 nM (active) and 474 nM (active) | GI50 (NCI-H226): < 43.6 nM (active) and 58.1 nM (active) | GI50 (TK-10): 726 nM (active) and 404 nM (active) | GI50 (T47D): 94.2 nM (active) and 94 nM (active) | GI50 (OVCAR-8): 200 nM (active) and 136 nM (active) | GI50 (786-0): 102 nM (active) and 57.5 nM (active) | GI50 (EKVX): 547 nM (active) and 301 nM (active) | GI50 (NCI-H23): 76.4 nM (active) and 105 nM (active) | GI50 (HL-60): 60.5 nM (active) and 57 nM (active) | GI50 (LOX IMVI): 52.1 nM (active) and 44.4 nM (active) | GI50 (SNB-19): 54.3 nM (active) and 92 nM (active) | GI50 (ACHN): 0.255 µM (active) | GI50 (OVCAR-5): 658 nM (active) and 733 nM (active) | GI50 (SW-620): 79.4 nM (active) and 122 nM (active) | GI50 (U-251): 44.9 nM (active) and 85.9 nM (active) | GI50 (MOLT-4): 16.9 nM (active) and 10 nM (active)

Nc1nc(N)c(-c2ccc(Cl)cc2)c(CCC(=O)Nc2cccc(C(F)(F)F)c2)n1
GI50 (COLO 205): > 100 µM (inactive) | GI50 (SK-OV-3): > 100 µM (inactive) | GI50 (RXF 393): > 100 µM (inactive) | GI50 (SK-MEL-2): > 100 µM (inactive) | GI50 (DMS-114): > 100 µM (inactive) | GI50 (CAKI-1): > 100 µM (inactive) | GI50 (SR): > 100 µM (inactive) | GI50 (UACC-257): > 100 µM (inactive) | GI50 (KM-20L2): > 100 µM (inactive) | GI50 (SN12C): > 100 µM (inactive) | GI50 (UACC-62): > 100 µM (inactive) | GI50 (SF-268): > 100 µM (inactive) | GI50 (RXF 631): > 100 µM (inactive) | GI50 (SK-MEL-28): > 100 µM (inactive) | GI50 (OVCAR-4): > 100 µM (inactive) | GI50 (NCI-H522): > 100 µM (inactive) | GI50 (HCT-15): > 100 µM | GI50 (A498): > 100 µM (inactive) | GI50 (CCRF-CEM): > 100 µM (inactive) | GI50 (HCC 2998): > 100 µM (inactive) | GI50 (XF498): > 100 µM (inactive) | GI50 (HOP-62): > 100 µM (inactive) | GI50 (A549): > 100 µM (inactive) | GI50 (SNB-78): > 100 µM (inactive) | GI50 (HOP-18): > 100 µM (inactive) | GI50 (KM12): > 100 µM (inactive) | GI50 (SK-MEL-5): > 100 µM (inactive) | GI50 (HT-29): > 100 µM (inactive) | GI50 (IGROV-1): > 100 µM (inactive) | GI50 (DMS-273): > 100 µM (inactive) | GI50 (HCT-116): > 100 µM (inactive) | GI50 (K562): > 100 µM (inactive) | GI50 (NCI-H460): > 100 µM (inactive) | GI50 (OVCAR-3): > 100 µM (inactive) | GI50 (M14): > 100 µM (inactive) | GI50 (NCI-H226): > 100 µM (inactive) | GI50 (UO-31): > 100 µM (inactive) | GI50 (TK-10): > 100 µM (inactive) | GI50 (LXFL 529): > 100 µM (inactive) | GI50 (OVCAR-8): > 100 µM (inactive) | GI50 (786-0): > 100 µM (inactive) | GI50 (SF-539): > 100 µM (inactive) | GI50 (SNB-75): > 100 µM (inactive) | GI50 (EKVX): > 100 µM (inactive) | GI50 (NCI-H23): > 100 µM (inactive) | GI50 (Malme-3M): > 100 µM (inactive) | GI50 (DLD-1): > 100 µM (inactive) | GI50 (HL-60): > 100 µM (inactive) | GI50 (LOX IMVI): > 100 µM (inactive) | GI50 (SNB-19): > 100 µM (inactive) | GI50 (ACHN): > 100 µM (inactive) | GI50 (SF-295): > 100 µM (inactive) | GI50 (OVCAR-5): > 100 µM (inactive) | GI50 (SW-620): > 100 µM (inactive) | GI50 (U-251): > 100 µM (inactive) | GI50 (MOLT-4): > 100 µM (inactive)
